Experiments:
[1] = tested on: DH10B cells co-expressing MaFRSA; assay: In vivo incorporation at position 200 of sfGFP, MaFRSA (intact mass, GluC LC-MS/MS); type: cell-based, E. coli; conditions: samples iv-v, DH10B, TB, 1 mM substrate
[2] = tested on: DH10B ΔaspC ΔtyrB harboring pMega-MaFRSA; type: cell-based, E. coli; conditions: samples viii-ix, TB, 1 mM substrate

| Structure (SMILES) | sfGFP containing variant 20 at position 200 [1] [%] | sfGFP containing variant 20 at position 200 [2] [%] | sfGFP containing variant 1 at position 200 [1] [%] | sfGFP containing variant 2 at position 200 [1] [%] | sfGFP containing variant 21 at position 200 [1] [%] | sfGFP containing variant A at position 200 [1] [%] | sfGFP containing variant F at position 200 [1] [%] | sfGFP containing variant K at position 200 [1] [%] | sfGFP containing variant Q at position 200 [1] [%] | sfGFP containing variant W at position 200 [1] [%] | sfGFP containing variant Y at position 200 [1] [%] | sfGFP containing variant 1 at position 200 [2] [%] | sfGFP containing variant 2 at position 200 [2] [%] | sfGFP containing variant 21 at position 200 [2] [%] | sfGFP containing variant A at position 200 [2] [%] | sfGFP containing variant F at position 200 [2] [%] | sfGFP containing variant K at position 200 [2] [%] | sfGFP containing variant Q at position 200 [2] [%] | sfGFP containing variant W at position 200 [2] [%] | sfGFP containing variant Y at position 200 [2] [%] |
| --- | --- | --- | --- | --- | --- | --- | --- | --- | --- | --- | --- | --- | --- | --- | --- | --- | --- | --- | --- | --- |
| N[C@@H](Cc1cccc(C(F)(F)F)c1)C(=O)O [Sample 20] | 98.73 | 98.19 | – | – | – | – | – | – | – | – | – | – | – | – | – | – | – | – | – | – |
| N[C@@H](Cc1cccc(C(F)(F)F)c1)C(=O)O [Substrate 20] | – | – | 0.00 | 0.00 | 0.32 | 0.03 | 0.34 | 0.02 | 0.11 | 0.17 | 0.28 | 0.00 | 0.00 | 0.65 | 0.02 | 0.34 | 0.01 | 0.07 | 0.12 | 0.60 |

Source: patent US20250027130A1, “Nucleic Acid Synthesis and Sequencing Using Tethered Nucleoside Triphosphates” (The Regents of the University of California, priority 2022, published 2025)
